The IC50 is the concentration needed to halve the response being measured.

The target in assay [1] is T1, human TREX2 (residues M44-A279) (Homo sapiens, UniProt Q9BQ50).
T1 construct: human TREX2 (residues M44-A279, expressed in E. coli); made in house; host or cells: E. coli
T1 sequence (Q9BQ50 44-279 isoform Q9BQ50-1): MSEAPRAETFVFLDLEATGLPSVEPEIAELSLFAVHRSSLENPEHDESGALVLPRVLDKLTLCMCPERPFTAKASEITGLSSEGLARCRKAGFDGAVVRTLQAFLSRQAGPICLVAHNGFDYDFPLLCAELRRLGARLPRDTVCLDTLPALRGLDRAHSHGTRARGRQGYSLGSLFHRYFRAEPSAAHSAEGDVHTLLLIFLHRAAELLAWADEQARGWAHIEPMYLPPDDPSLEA
As to the kind of experiment: hTREX2 Biochemical Assay (fluorescence, dsDNA substrate degradation). The conditions noted are these: biochemical selectivity for hTREX1 vs hTREX2. The method, boiled down:
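Fluorogenic dsDNA degradation read at 615 nm (570 nm excitation) after EDTA quench. Final 60 nM substrate, 50 pM His-Tev-tagged enzyme, 5 mM MgCl2, pH 7.4, 1.0% DMSO; 4 h compound–enzyme preincubation then 18 h reaction, both 25 °C; 10-point titration.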

A further assay has as its target T2, hTREX1 (Homo sapiens, UniProt Q9NSU2).
T2 construct: host or cells: HCT116 dual cells
T2 sequence (Q9NSU2 1-314): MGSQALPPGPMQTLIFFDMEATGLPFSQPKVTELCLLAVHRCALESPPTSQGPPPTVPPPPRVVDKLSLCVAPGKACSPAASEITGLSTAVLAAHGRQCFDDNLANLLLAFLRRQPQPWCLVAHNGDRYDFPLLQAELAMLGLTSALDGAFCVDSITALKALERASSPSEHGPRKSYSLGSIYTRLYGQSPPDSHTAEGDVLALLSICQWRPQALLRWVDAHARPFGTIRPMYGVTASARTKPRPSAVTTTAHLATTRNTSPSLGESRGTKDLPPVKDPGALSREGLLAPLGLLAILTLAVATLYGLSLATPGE
Description: hTREX1 HCT116 Cell Assay (HCT116 dual cells, Lucia luciferase reporter of Type I interferon induction). In kind it is cell-based. The note with it: TREX1i 4 h before pBR322/BstNI transfection, read after 48 h. The method in brief:
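Type I interferon induction read as secreted Lucia luciferase 48 h after transfecting pBR322/BstNI digest (1 ug/mL, 100 ng/well) into HCT116 dual reporter cells. Compound added 4 h before transfection at up to 0.1% DMSO; cells in DMEM/10% FBS/25 mM HEPES at 37 °C.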
In general terms: In a reporter assay the amount or activity of a reporter protein is the signal.

The target of another assay is T3, full length human TREX1 (Homo sapiens, UniProt Q9NSU2).
T3 construct: N-terminally His-Tev tagged full length human TREX1; made in house; host or cells: E. coli
T3 sequence (Q9NSU2 1-314): T2 sequence (Q9NSU2 1-314)
Description: hTREX1 Biochemical Assay (fluorescence, dsDNA substrate degradation). The conditions noted are these: biochemical, read-out: hTREX1 IC50. The method, boiled down: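 Fluorescence rises as enzyme degrades a quenched TEX615-labelled dsDNA substrate (60 nM) in 50 mM Tris, 150 mM NaCl, 5 mM MgCl2, pH 7.4. Full-length His-Tev-tagged human TREX1, 4 pM, sits with compound 4 hours at 25° C before substrate; reaction 18 hours, stopped with EDTA.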

A further assay deals with T4, full length mouse TREX1 (Mus musculus, UniProt Q91XB0).
T4 construct: N-terminally His-Tev tagged full length mouse TREX1; made in house; host or cells: E. coli
T4 sequence (Q91XB0 1-314): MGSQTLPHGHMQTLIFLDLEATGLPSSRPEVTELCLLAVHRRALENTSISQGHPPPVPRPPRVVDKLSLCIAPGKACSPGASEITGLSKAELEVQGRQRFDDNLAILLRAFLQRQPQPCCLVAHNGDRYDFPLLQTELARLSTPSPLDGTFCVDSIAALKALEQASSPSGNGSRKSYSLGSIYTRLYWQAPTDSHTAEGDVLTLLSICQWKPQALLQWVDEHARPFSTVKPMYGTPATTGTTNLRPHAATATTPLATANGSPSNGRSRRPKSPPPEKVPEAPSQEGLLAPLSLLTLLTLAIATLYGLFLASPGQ
Description: mTREX1 Biochemical Assay (fluorescence, dsDNA substrate degradation). The note with it: biochemical, read-out: mTREX1 IC50. The method, boiled down:
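Reaction run 18 h at 25° C. with 60 nM TEX615/quencher-labelled dsDNA and 6 pM mouse TREX1 in Tris buffer (pH 7.4, 5 mM MgCl2, 1.0% DMSO), enzyme having sat 4 h with compound across 10 concentrations. EDTA quench; substrate degradation measured as fluorescence increase.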

Turning to `CC(c1nc(C(=O)Nc2cnoc2)c(O)c(=O)n1C)C(c1cnn(C(F)(F)F)c1)c1ccccc1C#N` (single isomer, unassigned) [Example 151 D1E1], the “hTREX1 vs hTREX2 selectivity” value in assay [1] is reported as “B (B = 25 to 50-fold selective for hTREX1)”. Moreover, the figures for the IC50 against hTREX1, on full length human TREX1 and at full length mouse TREX1 were 10 to 100 nM, below 1 nM and below 1 nM, respectively.
As to `CC(c1nc(C(=O)Nc2cnoc2)c(O)c(=O)n1C)C(c1cnn(C(C)(C)CC#N)c1)c1cc(F)ccc1Cl` (single isomer, unassigned) [Example 100 D1E1], in assay [1], the “hTREX1 vs hTREX2 selectivity” value is on record as “A (A = <25 fold selective for hTREX1)”. Moreover, the IC50 is above 100 nM against hTREX1, 1 to 10 nM at full length human TREX1 and 1 to 10 nM on full length mouse TREX1.
On to `Cc1nn(C)cc1C(c1cc(F)ccc1C#N)C(C)c1nc(C(=O)Nc2cnoc2)c(O)c(=O)n1C` (single isomer, unassigned) [Example 57 D1E1], for which the “hTREX1 vs hTREX2 selectivity” value in assay [1] was “C (C = >50 fold selective for hTREX1)”. Also, the figures for the IC50 at hTREX1, on full length human TREX1 and at full length mouse TREX1 were 10 to 100 nM, 1 to 10 nM and above 10 nM, respectively.
Regarding `CC(c1nc(C(=O)Nc2cnoc2)c(O)c(=O)n1C)C(c1ccccc1Cl)n1cnc2ccccc21` (single isomer, unassigned) [Example 143 D1E1], in assay [1], the “hTREX1 vs hTREX2 selectivity” value is reported as “B (B = 25 to 50-fold selective for hTREX1)”. Besides, the IC50 against hTREX1 was 10 to 100 nM; on full length human TREX1 it was below 1 nM; on full length mouse TREX1 it was 1 to 10 nM.
For `CC(c1nc(C(=O)Nc2cnoc2)c(O)c(=O)n1C)C(c1cnn(CC(C)(C)C#N)c1)c1cc(F)ccc1Cl` (single isomer, unassigned) [Example 99 D1E1] the same measures were “A (A = <25 fold selective for hTREX1)”, above 100 nM, 1 to 10 nM and above 10 nM.
For `Cc1n[nH]c(C)c1C(c1ccccc1C#N)C(C)c1nc(C(=O)Nc2cnoc2)c(O)c(=O)n1C` (single isomer, unassigned) [Example 95 D1E2] the same measures were “A (A = <25 fold selective for hTREX1)”, above 100 nM, above 10 nM and above 10 nM.
For `Cc1cnc(C)c(C(c2ccccc2Cl)C(C)c2nc(C(=O)Nc3cnoc3)c(O)c(=O)n2C)n1` (single isomer, unassigned) [Example 120 D1E1], in that order: “C (C = >50 fold selective for hTREX1)”, below 10 nM, below 1 nM and 1 to 10 nM.
Consider `COCCn1cc(C(c2ccccc2C#N)C(C)c2nc(C(=O)Nc3cnoc3)c(O)c(=O)n2C)cn1` (single isomer, unassigned) [Example 9 D2E1], for which the “hTREX1 vs hTREX2 selectivity” value in assay [1] is on record as “C (C = >50 fold selective for hTREX1)”. In addition, the IC50 against hTREX1 was above 100 nM; at full length human TREX1, 1 to 10 nM; at full length mouse TREX1, above 10 nM.
Regarding `CC(c1nc(C(=O)Nc2cnoc2)c(O)c(=O)n1C)C(c1cnn(CCN2CCN(C(=O)OC(C)(C)C)CC2)c1)c1ccccc1C#N` (single isomer, unassigned) [Example 21 D1E1], the “hTREX1 vs hTREX2 selectivity” value in assay [1] is given as “C (C = >50 fold selective for hTREX1)”. The IC50 against hTREX1 is 10 to 100 nM; on full length human TREX1, below 1 nM; on full length mouse TREX1 it was 1 to 10 nM.
For `Cc1cnc(C(c2ccccc2Cl)C(C)c2nc(C(=O)Nc3cnoc3)c(O)c(=O)n2C)cn1` (single isomer, unassigned) [Example 116 D2E1], in that order: “A (A = <25 fold selective for hTREX1)”, above 100 nM, 1 to 10 nM and above 10 nM.
In the case of `COCCn1cc(C(c2ccccc2C#N)C(C)c2nc(C(=O)Nc3cnoc3)c(O)c(=O)n2C)cn1` (single isomer, unassigned) [Example 9 D1E1], in assay [1], the “hTREX1 vs hTREX2 selectivity” value was “C (C = >50 fold selective for hTREX1)”. Further, the IC50 at hTREX1 was 10 to 100 nM; on full length human TREX1, below 1 nM; on full length mouse TREX1, 1 to 10 nM.
For `CC(c1nc(C(=O)Nc2cnoc2)c(O)c(=O)n1C)C(c1ccccc1Cl)c1cnn(C)c1C#N` (single isomer, unassigned) [Example 96 D2E2], in that order: “C (C = >50 fold selective for hTREX1)”, below 10 nM, below 1 nM and 1 to 10 nM.
Consider `CC(c1nc(C(=O)Nc2cnoc2)c(O)c(=O)n1C)C(c1cnc(C(F)(F)F)cn1)c1ccccc1C#N` (single isomer, unassigned) [Example 118 D1E1], for which the “hTREX1 vs hTREX2 selectivity” value in assay [1] is recorded as “B (B = 25 to 50-fold selective for hTREX1)”. The IC50 on hTREX1 was in the range of 10 to 100 nM; at full length human TREX1, 1 to 10 nM; at full length mouse TREX1, 1 to 10 nM.
Regarding `CC(c1nc(C(=O)Nc2cnoc2)c(O)c(=O)n1C)C(c1cnn(C)c1)c1ccc(C(=O)N(C)C)cc1C#N` (single isomer, unassigned) [Example 11 D1E1], the “hTREX1 vs hTREX2 selectivity” value in assay [1] is listed as “B (B = 25 to 50-fold selective for hTREX1)”. In addition, the concentration for half-maximal inhibition (IC50) was above 100 nM against hTREX1, below 1 nM at full length human TREX1 and below 1 nM on full length mouse TREX1.
Take `CC(c1nc(C(=O)Nc2cnoc2)c(O)c(=O)n1C)C(c1cnn(C)c1)c1ccc(F)cc1C#N` (single isomer, unassigned) [Example 15 D1E1]: the “hTREX1 vs hTREX2 selectivity” value in assay [1] is listed as “C (C = >50 fold selective for hTREX1)”. Further, the IC50 was below 10 nM at hTREX1, below 1 nM on full length human TREX1 and 1 to 10 nM on full length mouse TREX1.
For `Cc1nccc(C(c2ccccc2C#N)C(C)c2nc(C(=O)Nc3cnoc3)c(O)c(=O)n2C)n1` (single isomer, unassigned) [Example 83 D1E1], in that order: “C (C = >50 fold selective for hTREX1)”, 10 to 100 nM, below 1 nM and above 10 nM.
Turning to `COC(C)(C)Cn1cc(C(c2cc(F)ccc2Cl)C(C)c2nc(C(=O)Nc3cnoc3)c(O)c(=O)n2C)cn1` (single isomer, unassigned) [Example 93 D1E2], in assay [1], the “hTREX1 vs hTREX2 selectivity” value is listed as “A (A = <25 fold selective for hTREX1)”. Moreover, the IC50 against hTREX1 is above 100 nM; on full length human TREX1, 1 to 10 nM; at full length mouse TREX1, above 10 nM.
`Cc1nc(C)c(C(c2ccccc2C#N)C(C)c2nc(C(=O)Nc3cnoc3)c(O)c(=O)n2C)nc1C` (single isomer, unassigned) [Example 122 D2E1]: the “hTREX1 vs hTREX2 selectivity” value in assay [1] is reported as “B (B = 25 to 50-fold selective for hTREX1)”. Also, the IC50 is above 100 nM on hTREX1, 1 to 10 nM on full length human TREX1 and above 10 nM at full length mouse TREX1.
Turning to `CC(c1nc(C(=O)Nc2cnoc2)c(O)c(=O)n1C)C(c1cnn(C)c1)c1cc(F)c(F)cc1C#N` (single isomer, unassigned) [Example 25 D1E1], in assay [1], the “hTREX1 vs hTREX2 selectivity” value was “C (C = >50 fold selective for hTREX1)”. Further, the IC50 is below 10 nM at hTREX1, below 1 nM at full length human TREX1 and 1 to 10 nM on full length mouse TREX1.
For `Cc1ncc(C(c2ccccc2C#N)C(C)c2nc(C(=O)Nc3cnoc3)c(O)c(=O)n2C)nc1C` (single isomer, unassigned) [Example 81 D2E1] the same measures were “B (B = 25 to 50-fold selective for hTREX1)”, above 100 nM, 1 to 10 nM and above 10 nM.

The values are drawn from patent publication US20240246946A1, “MODULATORS OF TREX1” (Constellation Pharmaceuticals, Inc., priority 2021, published 2024).
